Data on two substances can be found in US4810630A, “Use of polyoxyethylene ethers to improve the performance of immunoassays employing peroxidase conjugates” (priority 1987, dated 1989).

This test relates to N. gonorrhea. Put plainly: Microtiter plate enzyme immunoassay: optimization of coating antibody concentration with detergent in assay buffer. Details: species or system Neisseria gonorrhea. The procedure: Samples were treated 1.0N NaOH and neutralized with assay buffer as described in Example 1, above. For this assay, 0.100 mL aliquots of the treated, neutralized sample were transferred to the wells of a 96-well microtiter plate which had been previously incubated with an optimized concentration of anti-N. gonorrhea antibody diluted in phosphate buffered saline for 90-120 minutes, drained, then blocked with a solution containing 1.0% bovine serum albumin and 20% sucrose in phosphate buffered saline for 2 hours and dried in vacuo. The aliquots were permitted to incubate in the microtiter plate wells for 90 minutes at room temperature,then drained and washed with phosphate buffered saline containing 0.05% Tween® 20. Horseradish peroxidase conjugated anti-N. gonorrhea, 100 μL of an optimized concentration, was then added to each well and the plate again incubated for 1 hour at room temperature. The plate was then drained and washed as above. A 100 μL portion of the substrate/chromogen solution described in Example 1, above, was then added to each well and incubated for 10 minutes at room temperature. The absorbance of each well was then determined at 630 nm, and corrected for the absorbance at 490 nm.
Antibody specific for Neisseria gonorrhea was used to coat the wells of microtiter plates at varying concentrations in phosphate buffered saline, as described above. A comparison of the optimal antibody concentration in assays using Tween® 20 or Triton® X-100 was made by testing a single concentration of N. gonorrhea in wells previously coated, blocked, and dried as described above. The optimum concentration of antibody is identified as that which yields the maximum signal in the assay with a minimal background response. Table 4 lists the results of such experiments using Tween® 20 and Triton® X-100 as detergents in the assay buffer.

With “polyoxyethylene-octylphenoxy [Triton ® X-100]”, the “% Maximum Signal” value (coating antibody 0.20 μg/well) was determined as 100%; the “% Maximum Signal” value (coating antibody 0.30 μg/well) came to 98%; the “% Maximum Signal” value (coating antibody 0.35 μg/well) was 70%; the “% Maximum Signal” value (coating antibody 0.40 μg/well) is recorded as 69%; the “% Maximum Signal” value (coating antibody 0.45 μg/well) is 66%; the “% Maximum Signal” value (coating antibody 0.5 μg/well) is listed as 58%. Moreover, the “% Maximum Signal” value (coating antibody 0.60 μg/well) was determined as 57%.

For the substance “polyoxyethylene-sorbitan monolaurate [Tween ® 20]”, the “% Maximum Signal” value by setting is: (coating antibody 0.05 μg/well) 16%; (coating antibody 0.1 μg/well) 35%; (coating antibody 0.5 μg/well) 100%; (coating antibody 0.8 μg/well) 98%; (coating antibody 1.0 μg/well) 90%; (coating antibody 1.5 μg/well) 77%. Besides, the “% Maximum Signal” value (coating antibody 2.0 μg/well) came out at 66%.
